The source of these data is article PMC6271559, “Synthesis and Evaluation of 2,4-Disubstituted Quinazoline Derivatives with Potent Anti-Angiogenesis Activities” (Molecules, 2014).

Where two headings read alike, the source gives them in different places.

The subject of data set [1] is CNE-2 (human nasopharyngeal cancer) cells. Put plainly: MTT cytotoxicity assay, CNE-2. The note with it: 48 h, mean of three independent assays. The format is cell-based. The source says:
(§1) In the early 80s, scientists proposed anti-angiogenesis as a potential target in cancer therapy. Much research in the past 30 years has targeted tumor angiogenesis as a means of inhibiting the process of tumor-caused blood vessel formation. Endothelial cells, which come from the inner lining of blood vessels, makes up a fundamental part of new blood vessels as well as pre-existing ones. A complete angiogenesis process includes the proliferation, migration, and differentiation of endothelial cells, so a great deal of angiogenesis inhibitors discovered to date target endothelial cells. We thus employed a cell proliferation assay to evaluate the cytotoxicity of quinazoline derivatives against both normal (HUVEC) and tumor cell lines (CNE-2, PC-3, and SMMC-7721 cell lines) so we can screen some molecules that have cytotoxicity against tumor cells but low cytotoxicity against HUVECs. Meanwhile, an appropriate concentration range of these compounds could be determined to further study their inhibitive effects against the proliferation, migration, and differentiation of HUVECs. The cytotoxic activities of quinazoline derivatives against human tumor cell lines CNE-2 (human nasopharyngeal cancer), PC-3 (human prostatic carcinoma), SMMC-7721 (human liver cancer) and Human Umbilical Vein Endothelial Cells (HUVECs) were determined by using the MTT cytotoxicity assay.
(§2) HUVEC, CNE-2, PC-3, and 7721 cell lines were seeded on 96-well plates at a concentration of 5,000 cells per well and exposed to various concentrations of quinazoline derivatives. After 48 h of treatment at 37 °C in a humidified atmosphere of 5% CO2, 5 mg/mL MTT solution (10 μL) was added to each well and further incubated for 4 h. Each well was then added dimethyl sulfoxide (DMSO, 100 μL), and the optical density (OD) was recorded at 490 nm. All measurements were done in triplicate, and the IC50 values were derived from the mean OD values of the triplicate tests versus drug concentration curves.
In general terms: Formazan colour is commonly taken as a measure of viable cells.

Data set [2] deals with PC-3 (human prostatic carcinoma) cells. The data set is described as follows: MTT cytotoxicity assay, PC-3. The format is cell-based. The note with it: Prostatic carcinoma cell, 48 h, mean of three independent assays.
Description: as §1, §2

Data set [3] has as its system SMMC-7721 (human liver cancer) cells. Put plainly: MTT cytotoxicity assay, SMMC-7721. The following applies: 48 h, mean of three independent assays. The format is cell-based.
Description: as §1, §2

Data set [4] can be described thus: MTT cytotoxicity assay, HUVEC. The format is cell-based. The following applies: human, HUVEC (human umbilical vein endothelial cells), mean of three independent assays.
Description: as §1, §2

Data set [5] deals with HUVEC adhesion to collagen. The data set is described as follows: HUVEC adhesion assay on type I collagen. The note with it: Homo sapiens, HUVEC, adhesion of HUVEC on collagen, 37 °C. The format is cell-based, human. The source says: A perfect angiogenesis inhibitor must be show lower toxicity toward HUVECs, while showing high inhibitive capability towards the proliferation, migration, and differentiation of HUVECs. To assess the inhibitory effects of 2,4-disubstituted quinazoline derivatives, three assays were used: HUVEC adhesion assay, HUVEC migration assay and CAM assay. Firstly, to test the inhibitory effects of quinazoline derivatives on the attachment of endothelial cells to type I collagen, cell adhesion assays were carried out.
Cell adhesion assay was carried out by a reported method with slight modification. Wells of a 96-well plate were coated at room temperature overnight with rat trail tendon collagen type I (2 μg) in PBS in a final volume of 100 μL. The wells were washed three times with PBS ([…]) and then blocked with 0.2% bovine serum albumin (BSA) in PBS ([…]) for 2 h at 37 °C in a cell culture incubator. The wells were then washed three times with PBS ([…]). HUEVCs were detached from the dish, resuspended in DMEM, and added (50 μL, 10^4 cells/mL) to each well followed by the related compounds (50 μL) at various concentrations. The plates were incubated for 1 h or 3 h at 37 °C and then washed three times with PBS (100 μL). The attached cells were fixed and stained with 0.2 % crystal violet in 20% methanol for 10 min, then washed three times with PBS ([…]). The cells were solubilized by 2% SDS and the OD was measured at 570 nm. Attachment was determined by both 1 and 3 h as described above. Each compound was tested in triplicate and each experiment was repeated three times.

Data set [6] deals with chick embryo chorioallantoic membrane (CAM). Put plainly: CAM angiogenesis assay. The format is in vivo. The note with it: 30 μg/10 μL on filter disc, 48 h. As for the experimental part: CAMs treated with 0.9% NaCl solution (negative control) were surrounded by all antoic vessels as newly-formed capillaries converging radially toward the sponge in a “spoked wheel” pattern (number of vessels 24 ± 3).
The in vivo CAM angiogenesis model as initially described by Folkman and then modified by Maragoudakis was used. Fertilized chicken eggs were used after incubating them for 8 days. A 1 cm × 1 cm window was made in the shell to create a pocket to expose the CAM. A filter disc with 0.9% NaCl solution or 30 μg/10 μL of compounds was then placed upon the CAM from 10 eggs per treatment and 48 h later, the CAMs were fixed with 4% paraformaldehyde and the vessel number from three random fields around the filter disc were pictured using a microscope.

Another data set deals with HUVEC migration. Put plainly: HUVEC migration (wounding) assay. It is filed as cell-based, human. The following applies: 15 μM and 30 μM, 24 h. As for the experimental part: Compounds were tested at concentrations of both 15 μM and 30 μM, and all seven compounds tested in this assay could inhibit HUVEC migration.
The HUVEC cell line was seeded on a pre-treated 48-well culture plate at a concentration of 2 × 10^4 cells per well in a volume of 200 μL, and a portion of the cell monolayer was scraped off with a sterile disposable rubber policeman. After the DMEM medium was removed, the cells in each well were then washed three times with PBS (phosphate-buffer saline), and fresh medium was added to each well. The wells were then tested after incubation for 24 h with or without quinazoline derivatives at various concentrations. Two random pictures were taken for each wound using a microscope. The area of the migrations was measured using Photoshop CS3. All measurements were done in triplicate, and the experiments were done at least three times.

[7] abbreviates: 1 h, 1 h, read-out: 1 h Inhibition Rate % Dose 15 μM.
[8] abbreviates: 1 h, 1 h, read-out: 1 h Inhibition Rate % Dose 30 μM.
[9] abbreviates: 3 h, 3 h, read-out: 3 h Inhibition Rate % Dose 15 μM.
Setting [10] is: 3 h, 3 h, read-out: 3 h Inhibition Rate % Dose 30 μM.

Molecule `CN(C)CCCNc1nc(-c2ccccc2NC(=O)CCCN2CCN(C)CC2)nc2ccccc12` [Compound 12d, N-(2-(4-(3-(Dimethylamino)propylamino)quinazolin-2-yl)phenyl)-4-(4-methylpiperazin-1-yl)butanami-de] showed a melting point of 155 to 157 °C. Further, in data set [1], half-maximal inhibition (IC50) required 11.4 ± 0.1 µM. The molecule also registered an IC50 in data set [2] of 10.9 ± 0.2 µM. In addition, the IC50 in data set [3] was 10.3 ± 0.5 µM. For the same molecule, the IC50 at 48 h in data set [4] was 40.2 ± 0.2 µM. For the same molecule, the inhibition at 15 µM in data set [5] (setting [7]) was 46.8 ± 0.2%. Also, the inhibition at 30 µM in data set [5] (setting [8]) is 63.7 ± 0.2%. Further, the inhibition at 15 µM in data set [5] (setting [9]) was found to be 47.5 ± 0.3%. Moreover, the inhibition at 30 µM in data set [5] (setting [10]) turned out to be 63.4 ± 0.3%. Further, the “inhibition of angiogenesis in CAM assay” value in data set [6] was “excellent inhibition of angiogenesis”.

Molecule `CN(C)CCCNc1nc(-c2ccccc2NC(=O)CCN2CCN(C)CC2)nc2ccccc12` [Compound 11d, N-(2-(4-(3-(Dimethylamino)propylamino)quinazolin-2-yl)phenyl)-3-(4-methylpiperazin-1-yl)propane-mide] gave a melting point of 167 to 168 °C. In data set [1], this molecule registered an IC50 of 9.3 ± 0.2 µM. The IC50 in data set [2] stood at 9.8 ± 0.3 µM. In data set [3], this molecule displayed an IC50 of 10.9 ± 0.2 µM. This molecule had an IC50 at 48 h in data set [4] of 47.2 ± 0.2 µM. In addition, the inhibition at 15 µM in data set [5] (setting [7]) is 47.4 ± 0.1%. Moreover, in data set [5] (setting [8]), the inhibition at 30 µM was determined as 65.8 ± 0.2%. In addition, in data set [5] (setting [9]), the inhibition at 15 µM turned out to be 53.3 ± 0.3%. Moreover, the inhibition at 30 µM in data set [5] (setting [10]) was 71.2 ± 0.1%. In the data set on HUVEC migration, the “inhibition of HUVEC migration” value is on record as “best inhibitory activity”. Also, in data set [6], the “inhibition of angiogenesis in CAM assay” value was “excellent inhibition of angiogenesis”.

Turning to `CN(C)CCCNc1nc(-c2ccccc2NC(=O)CN2CCCCC2)nc2ccccc12` [Compound 10a, N-(2-(4-(3-(Dimethylamino)propylamino)quinazolin-2-yl)phenyl)-2-(piperidin-1-yl)acetamide], the melting point fell in the range of 180 to 182 °C. For the same molecule, the IC50 in data set [1] amounted to 13.6 ± 0.2 µM. The IC50 in data set [2] is 16.8 ± 0.1 µM. Moreover, half-maximal inhibition in data set [3] (IC50) required 18.1 ± 0.2 µM. For the same molecule, in data set [4], inhibition was half-maximal at 45.7 ± 0.2 µM (IC50 at 48 h). Further, in data set [5] (setting [7]), the inhibition at 15 µM turned out to be 26.7 ± 0.1%. In addition, the inhibition at 30 µM in data set [5] (setting [8]) came to 31.6 ± 0.3%. In addition, the inhibition at 15 µM in data set [5] (setting [9]) stood at 29.2 ± 0.2%. For the same molecule, the inhibition at 30 µM in data set [5] (setting [10]) was 37.6 ± 0.1%.

By IC50 is commonly meant the concentration that inhibits the measured activity by half. Higher therefore signals lower potency. A word on the inhibition: it is how much of the control response was suppressed. A word on the melting point: it is the temperature, or range, at which the solid turns liquid.
